The values that follow come from ChEMBL document CHEMBL1909046, “DrugMatrix in vitro pharmacology data”.

Experiment [1] addresses T1, 5-hydroxytryptamine receptor 1A (Rattus norvegicus, UniProt P19327).
T1 sequence (P19327 whole entry): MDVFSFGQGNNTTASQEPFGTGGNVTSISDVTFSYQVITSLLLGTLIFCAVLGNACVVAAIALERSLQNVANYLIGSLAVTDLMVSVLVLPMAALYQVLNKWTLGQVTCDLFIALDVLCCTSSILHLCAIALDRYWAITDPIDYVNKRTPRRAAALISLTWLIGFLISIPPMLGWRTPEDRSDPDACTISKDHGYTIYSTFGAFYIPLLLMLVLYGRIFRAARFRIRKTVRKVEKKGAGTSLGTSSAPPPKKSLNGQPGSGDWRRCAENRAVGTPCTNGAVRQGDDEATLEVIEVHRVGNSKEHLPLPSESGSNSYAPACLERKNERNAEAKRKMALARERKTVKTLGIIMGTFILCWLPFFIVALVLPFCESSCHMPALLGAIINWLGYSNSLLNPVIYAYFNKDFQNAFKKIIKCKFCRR
The experiment is classed as cell membranes, CHO-K1, Membrane. Particulars: cho-k1.

Experiment [2] deals with T2, Polyunsaturated fatty acid lipoxygenase ALOX15 (Oryctolagus cuniculus, UniProt P12530).
T2 sequence (P12530 whole entry): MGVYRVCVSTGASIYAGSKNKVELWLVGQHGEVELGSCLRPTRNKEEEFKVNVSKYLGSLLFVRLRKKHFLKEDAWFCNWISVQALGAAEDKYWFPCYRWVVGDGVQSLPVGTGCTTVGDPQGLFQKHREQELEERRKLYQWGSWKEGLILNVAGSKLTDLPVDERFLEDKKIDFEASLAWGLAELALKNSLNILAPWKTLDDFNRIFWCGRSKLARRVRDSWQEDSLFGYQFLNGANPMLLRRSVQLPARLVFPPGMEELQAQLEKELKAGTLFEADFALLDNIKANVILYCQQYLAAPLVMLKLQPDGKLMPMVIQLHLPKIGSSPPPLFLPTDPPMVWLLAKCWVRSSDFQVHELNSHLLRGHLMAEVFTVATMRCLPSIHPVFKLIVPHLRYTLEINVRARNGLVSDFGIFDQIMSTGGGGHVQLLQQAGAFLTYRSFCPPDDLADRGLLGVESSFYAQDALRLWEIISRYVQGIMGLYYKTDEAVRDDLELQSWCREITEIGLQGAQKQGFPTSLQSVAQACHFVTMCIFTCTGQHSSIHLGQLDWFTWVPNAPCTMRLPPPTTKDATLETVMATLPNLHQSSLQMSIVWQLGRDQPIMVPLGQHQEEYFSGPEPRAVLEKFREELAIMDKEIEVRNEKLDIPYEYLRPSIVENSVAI
Description: biochemical. Format: tissue-based, Reticulocytes.

Experiment [3] addresses Beta-2 adrenergic receptor (Homo sapiens, UniProt P07550). Description: DRUGMATRIX: Adrenergic beta2 radioligand binding (ligand: [3H] CGP-12177). The experiment is classed as cell membranes, CHO, Membrane. Particulars: cho; Not Active = under 50% inhibition at 10 µM.
In experiment [4] the target is Receptor tyrosine-protein kinase erbB-2 (Homo sapiens, UniProt P04626). Briefly: biochemical. Format: cell-based, Insect cells. Particulars: insect cells.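 Also: inhibition of HER2 kinase enzyme activity, measured with Poly(Glu:Tyr) as the phosphorylation substrate; in other assays of this panel Not Active means under 50% inhibition at 10 µM.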
Experiment [5] deals with 5-hydroxytryptamine receptor 2B (Homo sapiens, UniProt P41595). Format: cell membranes, CHO-K1, Membrane.
Chain of 5-hydroxytryptamine receptor 2B (P41595 whole entry): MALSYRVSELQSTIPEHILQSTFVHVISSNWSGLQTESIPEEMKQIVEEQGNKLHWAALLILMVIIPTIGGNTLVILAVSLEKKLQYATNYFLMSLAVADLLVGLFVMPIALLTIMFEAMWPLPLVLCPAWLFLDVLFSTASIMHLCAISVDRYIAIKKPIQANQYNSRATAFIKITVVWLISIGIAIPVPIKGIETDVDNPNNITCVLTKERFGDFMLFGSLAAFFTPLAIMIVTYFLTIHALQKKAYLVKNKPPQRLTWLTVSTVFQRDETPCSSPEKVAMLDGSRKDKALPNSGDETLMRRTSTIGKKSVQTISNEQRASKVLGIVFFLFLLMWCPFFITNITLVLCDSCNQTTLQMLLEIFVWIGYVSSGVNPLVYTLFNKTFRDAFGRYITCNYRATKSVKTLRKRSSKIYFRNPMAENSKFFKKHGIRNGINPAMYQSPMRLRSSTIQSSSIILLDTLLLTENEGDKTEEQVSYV
Experiment [6] has as its target Melanocortin receptor 3 (Homo sapiens, UniProt P41968). Format: cell membranes, HEK293, Membrane. The settings on record: hek293. Also: in other assays of this panel Not Active means under 50% inhibition at 10 µM.

Chain of Melanocortin receptor 3 (P41968 whole entry): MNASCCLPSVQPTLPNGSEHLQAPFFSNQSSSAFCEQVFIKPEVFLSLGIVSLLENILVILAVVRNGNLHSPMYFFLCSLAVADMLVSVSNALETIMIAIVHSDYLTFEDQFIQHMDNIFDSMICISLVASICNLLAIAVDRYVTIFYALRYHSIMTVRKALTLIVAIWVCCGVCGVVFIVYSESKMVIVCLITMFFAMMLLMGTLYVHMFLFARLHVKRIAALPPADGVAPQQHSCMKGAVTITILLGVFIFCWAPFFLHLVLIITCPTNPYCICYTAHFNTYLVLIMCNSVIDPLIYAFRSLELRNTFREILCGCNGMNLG

Consider `Nc1ccn([C@@H]2O[C@H](CO)[C@@H](O)[C@@H]2O)c(=O)n1` [CYTARABINE], for which the IC50 result in experiment [1], in experiment [2] (reticulocytes), in experiment [3], in experiment [4], in experiment [5] (cho-k1) and in experiment [6] was “Not Active” in each case.

As to GADOPENTETATE DIMEGLUMINE, the IC50 entry in experiment [1], in experiment [2] (reticulocytes), in experiment [3], in experiment [4], in experiment [5] (cho-k1) and in experiment [6] was “Not Active” in each case. In addition, the Ki entry in experiment [1], in experiment [2] (reticulocytes), in experiment [3], in experiment [4], in experiment [5] (cho-k1) and in experiment [6] was “Not Active” in each case.

Regarding `C=CCc1ccc(O)c(OC)c1` [EUGENOL], the IC50 result in experiment [1], in experiment [2] (reticulocytes), in experiment [3], in experiment [4], in experiment [5] (cho-k1) and in experiment [6] was “Not Active” each time.

Take `CCn1cc(C(=O)O)c(=O)c2cnc(N3CCCC3)nc21` [PIROMIDIC ACID]: the half-maximal inhibitory concentration (IC50) result in experiment [1], in experiment [2] (reticulocytes), in experiment [3], in experiment [4], in experiment [5] (cho-k1) and in experiment [6] was “Not Active” each time.

As to `CC(C)c1cccc(C(C)C)c1O` [PROPOFOL], the IC50 result is “Not Active” in experiment [1]; 7.6 µM in experiment [2] (read-out: IC50); “Not Active” in experiment [3]; “Not Active” in experiment [4]; 5.5 µM in experiment [5] (read-out: IC50); “Not Active” in experiment [6]. The Ki in experiment [5] (read-out: Ki) was 3.5 µM.

Regarding `COC(=O)Nc1nc2ccc(C(=O)c3cccs3)cc2[nH]1` [NOCODAZOLE], the IC50 result is “Not Active” in experiment [1]; “Not Active” in experiment [2] (reticulocytes); “Not Active” in experiment [3]; “Not Active” in experiment [4]; 20.2 µM in experiment [5] (read-out: IC50); “Not Active” in experiment [6]. Further, the Ki in experiment [5] (read-out: Ki) stood at 12.8 µM.

AURANOFIN: the IC50 entry in experiment [1], in experiment [2] (reticulocytes), in experiment [3], in experiment [4], in experiment [5] (cho-k1) and in experiment [6] was “Not Active” in each case. Further, the Ki result in experiment [1], in experiment [2] (reticulocytes), in experiment [3], in experiment [4], in experiment [5] (cho-k1) and in experiment [6] was “Not Active” each time.

Turning to `Cc1nnc2n1-c1ccc(Cl)cc1C(c1ccccc1)=NC2` [ALPRAZOLAM], the IC50 entry in experiment [1], in experiment [2] (reticulocytes), in experiment [3], in experiment [4], in experiment [5] (cho-k1) and in experiment [6] was “Not Active” throughout.

As for `CC(=O)[C@H]1[C@H](C#N)C[C@H]2[C@@H]3CC=C4C[C@@H](O)CC[C@]4(C)[C@H]3CC[C@@]21C` [PREGNENOLONE CARBONITRILE], the IC50 result in experiment [1], in experiment [2] (reticulocytes), in experiment [3], in experiment [4], in experiment [5] (cho-k1) and in experiment [6] was “Not Active” throughout.

Regarding `C[C@@H]1CC[C@@]2(OC1)O[C@H]1[C@@H](O)[C@H]3[C@@H]4CC[C@H]5C[C@@H](O[C@@H]6O[C@H](CO)[C@H](O[C@@H]7O[C@H](CO)C(O)[C@H](O[C@@H]8OC[C@@H](O)[C@H](O)[C@H]8O)[C@H]7O[C@@H]7O[C@H](CO)[C@H](O)[C@H](O[C@@H]8O[C@H](CO)[C@@H](O)[C@H](O)[C@H]8O)[C@H]7O)[C@H](O)[C@H]6O)[C@H](O)C[C@]5(C)[C@H]4CC[C@]3(C)[C@H]1[C@@H]2C` (some centres undefined) [DIGITONIN], the IC50 entry in experiment [1], in experiment [2] (reticulocytes), in experiment [3], in experiment [4], in experiment [5] (cho-k1) and in experiment [6] was “Not Active” in each case.

A word on the IC50: it is the concentration that inhibits the measured activity by half. What is called Ki is a dissociation constant, usually derived from enzyme kinetics or from competition with a known ligand.
